# Tested on: DNA synthesis in Ehrlich ascites tumor cells
# Experiment: Inhibition of DNA synthesis (and DNA and RNA synthesis) on irradiation at 365 nm
# Type: cell-based
# Conditions: Ehrlich ascites tumor cells; versus angelicin
# From the text: (§1) Photobiological activity: A significant test for assessing photobiological activity of alkylangelicins is the study of their capacity to inhibit DNA and RNA synthesis in Ehrlich ascites tumor cells. In Table III the capacity of inhibition is expressed as ID50, that is the irradiation does, in terms of quanta at 365 nm, necessary to inhibit in these cells the 50% of the DNA and RNA synthesis in the presence of a constant amount of alkylangelicin. […] Moreover, in general it can be observed that in this simple biological system a close correlation exists between photobiological activity and the capacity to induce photochemical lesions in DNA, that is photoreactivity.
row,SMILES,capacity to inhibit the DNA and RNA synthesis (in words)
1,"Cc1cc2c(cc(C)c3c(C)cc(=O)oc32)o1 [4,5,5'-trimethylangelicin]",lower than that of angelicin

# Same assay, conditions: relative (ang = 100)
row,SMILES,"inhibition of DNA synthesis, relative"
1,"Cc1cc2c(cc(C)c3ccc(=O)oc32)o1 [5,5'-dimethylangelicin]",180
2,"COCc1c(C)oc2ccc3c(C)cc(=O)oc3c12 [4'-methoxymethyl-4,5'-dimethylangelicin, 4,5'-dimethyl-4'-methoxymethylangelicin]",110
3,"Cc1oc2ccc3c(C)cc(=O)oc3c2c1CO [4'-hydroxymethyl-4,5'-dimethylangelicin, 4,5'-dimethyl-4'-hydroxy-methylangelicin]",272
4,"Cc1cc2c(ccc3ccc(=O)oc32)o1 [5'-methylangelicin, 5'methylangelicin]",150

# Tested on: RNA synthesis in Ehrlich ascites tumor cells
# Experiment: Inhibition of RNA synthesis on irradiation at 365 nm
# Type: cell-based
# Conditions: relative (ang = 100)
# From the text: as §1
row,SMILES,"inhibition of RNA synthesis, relative"
1,"Cc1cc2c(cc(C)c3ccc(=O)oc32)o1 [5,5'-dimethylangelicin]",355
2,"COCc1c(C)oc2ccc3c(C)cc(=O)oc3c12 [4'-methoxymethyl-4,5'-dimethylangelicin, 4,5'-dimethyl-4'-methoxymethylangelicin]",169
3,"Cc1oc2ccc3c(C)cc(=O)oc3c2c1CO [4'-hydroxymethyl-4,5'-dimethylangelicin, 4,5'-dimethyl-4'-hydroxy-methylangelicin]",169
4,"Cc1cc2c(ccc3ccc(=O)oc32)o1 [5'-methylangelicin, 5'methylangelicin]",134

# Tested on: epidermal DNA synthesis
# Experiment: Inhibition of epidermal DNA synthesis in the mouse in vivo after topical application and UV-A irradiation
# Conditions: light or radiation study, 0.01% methanol solutions, UV-A 9 J/cm^2, read-out: Percent inhibition ± standard error of epidermal DNA synthesis
# Method: DNA samples were dissolved in water and their specific radioactivity determined.
# Each drug substance was studied using at least six mice.
row,SMILES,inhibition in vivo at 0.01 % [%]
1,"Cc1cc2c(cc(C)c3ccc(=O)oc32)o1 [5,5'-dimethylangelicin]",48.3 ± 2.9

# Tested on: DNA
# Experiment: Dark complex formation (intercalation) with DNA in the ground state, binding parameters
# Design: K (association constants) of the complexes with DNA: unit not given here
# Conditions: in vitro, ground state, McGhee and Von Hippel method
# From the text: Dark complex formation: It is known from F. Dall'Acqua, et al. Chem.-Biol. Interactions 21,103 (1978) that the intercalated complex formed by furocoumarins with DNA strongly affects the successive photoaddition increasing the rate of photobinding. […] These parameters have been determined according to the method of McChee and Von Hippel, J.Mol.Biol, 86, 469 (1974).
# (a) Determined according to Mc Ghee and Von Hippel, J. Mol. Biol.,
row,K (association constants) of the complexes with DNA,SMILES
1,1750,"Cc1cc2c(cc(C)c3ccc(=O)oc32)o1 [5,5'-dimethylangelicin]"
2,700,"COCc1c(C)oc2ccc3c(C)cc(=O)oc3c12 [4'-methoxymethyl-4,5'-dimethylangelicin, 4,5'-dimethyl-4'-methoxymethylangelicin]"
3,1250,"Cc1oc2ccc3c(C)cc(=O)oc3c2c1CO [4'-hydroxymethyl-4,5'-dimethylangelicin, 4,5'-dimethyl-4'-hydroxy-methylangelicin]"
4,1200,"Cc1cc2c(ccc3ccc(=O)oc32)o1 [5'-methylangelicin, 5'methylangelicin]"

# Same assay, conditions: in vitro, ground state; molecules bound per nucleotide
row,1/n (frequency of binding sites),SMILES
1,0.085,"Cc1cc2c(cc(C)c3ccc(=O)oc32)o1 [5,5'-dimethylangelicin]"
2,0.050,"COCc1c(C)oc2ccc3c(C)cc(=O)oc3c12 [4'-methoxymethyl-4,5'-dimethylangelicin, 4,5'-dimethyl-4'-methoxymethylangelicin]"
3,0.087,"Cc1oc2ccc3c(C)cc(=O)oc3c2c1CO [4'-hydroxymethyl-4,5'-dimethylangelicin, 4,5'-dimethyl-4'-hydroxy-methylangelicin]"
4,0.073,"Cc1cc2c(ccc3ccc(=O)oc32)o1 [5'-methylangelicin, 5'methylangelicin]"

# Same assay, conditions: relative (ang = 100)
"1/n (frequency of binding sites), relative","K (association constants), relative",SMILES
135,312,"Cc1cc2c(cc(C)c3ccc(=O)oc32)o1 [5,5'-dimethylangelicin]"
80,125,"COCc1c(C)oc2ccc3c(C)cc(=O)oc3c12 [4'-methoxymethyl-4,5'-dimethylangelicin, 4,5'-dimethyl-4'-methoxymethylangelicin]"
138,223,"Cc1oc2ccc3c(C)cc(=O)oc3c2c1CO [4'-hydroxymethyl-4,5'-dimethylangelicin, 4,5'-dimethyl-4'-hydroxy-methylangelicin]"
116,214,"Cc1cc2c(ccc3ccc(=O)oc32)o1 [5'-methylangelicin, 5'methylangelicin]"

# Tested on: psoriasis
# Experiment: Topical photochemotherapy of psoriasis in patients
# Type: in vivo, human
# Conditions: topical 0.1% w/v + UV-A; Excellent = 90% clearance
# From the text: Clinical data: The effectiveness of certain representative alkylangelicins according to the present invention, specifically 5-methylangelicin, 4,5'-dimethylangelicin, 4'-hydroxymethyl-4,5'-dimethylangelicin, 4'-hydroxymethyl-4,5'-dimethylangelicin and 4,5-dimethylangelicin, has been tested by measuring their capacity to resolve psoriasis in various patients. For a direct comparison the efficacy of the parent unsubstituted angelicin and that of three very effective linear furocoumarins, that is 8-methoxypsoralen (8-MOP), 5-methoxypsoralen (5-MOP), and 4,5',8-trimethylpsoralen (TMP) were also tested.
# In each treatment four areas of the affected skin were used;
# (a) In the first area an alcohol lotion, containing 10% glycerine, of the tested compound (0.1% w/v) was applied until a concentration of […] was reached then left to evaporate by the heat of the body. After half an hour the area was irradiated with high intensity UV-A emitting low pressure mercury fluorescent lamps with a wavelength of 320-400 nm. The irradiation doses were selected in the range of 4.5-13 J/cm^2 for each application as a function of the sensitivity of the skin of the patients; when the skin sensitivity was higher, the light doses were lower and vice versa.
# (b) A second area was treated with an alcohol solution of the drug as in (a) but it was covered and maintained in the dark.
# (c) A third area, where the drug was not applied, was irradiated as in (a) but in general with higher UV-A doses.
# (d) A fourth area was not treated at all, neither with the drug, not with UV-A.
# The treatment with the alkylangenlicins referred to above was repeated 5 time a week for two or more weeks; the total number of treatments was between 8 and 20 per subject. In some cases, as for instance with 5-methylangelicin, a good clearing of psoriasis was observed after 8 treatments.
# In order to avoid induction of photosensitization processes such as redness and erythema in the reference tests made with the linear furocoumarins 8-MOP, 5-MOP, TMP, lower light doses were used than in the case of alkylangelicins, the treatments were repeated at a frequency of no more than three times a week.
row,SMILES,No. of patients with Excellent result [patients]
1,"Cc1oc2ccc3c(C)cc(=O)oc3c2c1CO [4'-hydroxymethyl-4,5'-dimethylangelicin, 4,5'-dimethyl-4'-hydroxy-methylangelicin]",0

# Same assay, conditions: topical 0.1% w/v + UV-A; Fair = 50-70%
row,SMILES,No. of patients with Fair result [patients]
1,"Cc1oc2ccc3c(C)cc(=O)oc3c2c1CO [4'-hydroxymethyl-4,5'-dimethylangelicin, 4,5'-dimethyl-4'-hydroxy-methylangelicin]",2

# Same assay, conditions: topical 0.1% w/v + UV-A; Good = 70-90%
row,SMILES,No. of patients with Good result [patients]
1,"Cc1oc2ccc3c(C)cc(=O)oc3c2c1CO [4'-hydroxymethyl-4,5'-dimethylangelicin, 4,5'-dimethyl-4'-hydroxy-methylangelicin]",1

# Same assay, conditions: topical 0.1% w/v + UV-A; Poor 40%
row,SMILES,No. of patients with Poor result [patients]
1,"Cc1oc2ccc3c(C)cc(=O)oc3c2c1CO [4'-hydroxymethyl-4,5'-dimethylangelicin, 4,5'-dimethyl-4'-hydroxy-methylangelicin]",1

# Tested on: skin
# Experiment: Relative skin phototoxicity
# Conditions: (psr = 100)
row,SMILES,Relative skin phototoxicity
1,"Cc1cc2c(cc(C)c3ccc(=O)oc32)o1 [5,5'-dimethylangelicin]",0
2,"COCc1c(C)oc2ccc3c(C)cc(=O)oc3c12 [4'-methoxymethyl-4,5'-dimethylangelicin, 4,5'-dimethyl-4'-methoxymethylangelicin]",0
3,"Cc1oc2ccc3c(C)cc(=O)oc3c2c1CO [4'-hydroxymethyl-4,5'-dimethylangelicin, 4,5'-dimethyl-4'-hydroxy-methylangelicin]",0
4,"Cc1cc2c(ccc3ccc(=O)oc32)o1 [5'-methylangelicin, 5'methylangelicin]",0

# Tested on: epidermal DNA synthesis
# Experiment: Inhibition of the synthesis of epidermal DNA of the mouse in vivo after oral administration and UV-A irradiation
# Conditions: oral 0.25 g/Kg, UV-A 9 J/cm^2 after two hours
# From the text: Considering that the topical skin tests carried out on mice to evaluate the effectiveness of these substances has yielded data which correlate well with the clinical data, such a test conveniently modified has been adopted to evaluate the effectiveness of the alkylangelicins after oral administration followed by UV-A irradiation.
# In this connection experiments have been conducted using mice 20±2 g in weight, that were starved for three hours before oral administration of the alkylangelicins. Groups of 5 mice were fed a suspension of 0.5% methylcellulose in water containing the alkylangelicins of the invention at a dosage of 0.25 g/Kg. The animals were kept in the dark for two hours, that is for the time necessary for absorption, systemic distribution and localization of the drug at the level of the skin. The animals were then irradiated with UV-A light, 9 J/cm^2. Later the animals were sacrificed and the inhibition of the epidermal DNA synthesis was tested; the results obtained are reported in Table VI. The skin on the back, protected from light by a dark paper, was assumed as a control. As a reference 8-MOP, used under the same experimental conditions, was also tested. The significant activity of the alkylangelicins according to the present invention, higher than that of 8-MOP, in inhibiting the epidermal DNA synthesis in mice upon oral administration allows one to consider these compounds as also being effective for oral administration to humans for photochemotherapy of psoriasis and of other skin diseases that are characterized by cellular hyperproliferation.
row,SMILES,Percent inhibition ± standard error of epidermal DNA synthesis [%]
1,"Cc1oc2ccc3c(C)cc(=O)oc3c2c1CO [4'-hydroxymethyl-4,5'-dimethylangelicin, 4,5'-dimethyl-4'-hydroxy-methylangelicin]",54.2 ± 6.8

# Tested on: DNA
# Experiment: Capacity to form inter-strand cross-linkages in DNA
# Type: biochemical
# Conditions: (psr = 100)
# Method: All these compounds were not suitable to photoinduce in DNA inter-strand cross-linkages. […] These tests were carried out according to the method of F. Bordin et al., Photochem. Photobiol., 29,1063 (1979).
row,SMILES,capacity to form interstrand cross-linkages
1,"Cc1cc2c(cc(C)c3ccc(=O)oc32)o1 [5,5'-dimethylangelicin]",0
2,"COCc1c(C)oc2ccc3c(C)cc(=O)oc3c12 [4'-methoxymethyl-4,5'-dimethylangelicin, 4,5'-dimethyl-4'-methoxymethylangelicin]",0
3,"Cc1oc2ccc3c(C)cc(=O)oc3c2c1CO [4'-hydroxymethyl-4,5'-dimethylangelicin, 4,5'-dimethyl-4'-hydroxy-methylangelicin]",0
4,"Cc1cc2c(ccc3ccc(=O)oc32)o1 [5'-methylangelicin, 5'methylangelicin]",0

# Tested on: DNA
# Experiment: Photobinding to DNA, rate constants of the photoreactions
# Type: biochemical
# Conditions: in vitro, UV-A irradiated
# From the text: (b) Determined according to F. Dall'Acqua, S. Marciani, F. Zambon and G.
# Rodighiero, Photochem. Photobiol., 29,489(1979).
# Photobinding capacity to DNA: The introduction of one or two methyl groups in the molecule of angelicin leads to a strong increase of the photobinding to DNA; see Table II. […] Photobiol., 29, 489 (1979).
row,Rate constants of the photoreactions with DNA [K × 10^-2 × min^-1],SMILES
1,2.73,"Cc1cc2c(cc(C)c3ccc(=O)oc32)o1 [5,5'-dimethylangelicin]"
2,1.6,"COCc1c(C)oc2ccc3c(C)cc(=O)oc3c12 [4'-methoxymethyl-4,5'-dimethylangelicin, 4,5'-dimethyl-4'-methoxymethylangelicin]"
3,3.2,"Cc1oc2ccc3c(C)cc(=O)oc3c2c1CO [4'-hydroxymethyl-4,5'-dimethylangelicin, 4,5'-dimethyl-4'-hydroxy-methylangelicin]"
4,2.11,"Cc1cc2c(ccc3ccc(=O)oc32)o1 [5'-methylangelicin, 5'methylangelicin]"

# Same assay, conditions: relative (ang = 100)
row,"Rate constants of the photoreactions with DNA, relative",SMILES
1,248,"Cc1cc2c(cc(C)c3ccc(=O)oc32)o1 [5,5'-dimethylangelicin]"
2,145,"COCc1c(C)oc2ccc3c(C)cc(=O)oc3c12 [4'-methoxymethyl-4,5'-dimethylangelicin, 4,5'-dimethyl-4'-methoxymethylangelicin]"
3,191,"Cc1cc2c(ccc3ccc(=O)oc32)o1 [5'-methylangelicin, 5'methylangelicin]"

# Same assay, conditions: versus angelicin
row,photobinding capacity to DNA (in words),SMILES
1,close to that of angelicin,"Cc1cc2c(cc(C)c3c(C)cc(=O)oc32)o1 [4,5,5'-trimethylangelicin]"

# Reference: US4312883A, “Furocoumarin for the photochemotherapy of psoriasis and related skin diseases” (Consiglio Nazionale delle Ricerche, priority 1979, dated 1982)
